Experimental data reported in patent publication US11839613B2, “Pyrimidine derivatives as PGE2 receptor modulators” (IDORSIA PHARMACEUTICALS LTD, priority 2017, dated 2023).

Tests used:
PTGER2 (EP2) = PTGER2 (EP2) (Homo sapiens (Human), UniProt P43116); assay: hEP2 b-arrestin assay (PathHunter HEK 293 PTGER2 b-arrestin cells); type: cell-based; details: antagonistic activity, beta-arrestin assay; read-out: hEP2 b-arr IC50
Description: Plate is pre-incubated 15 minutes at 37° C. Then five microliters of PGE2 (final conc. 5 μM) are transferred into the assay plate. Plate is incubated 120 minutes at 37° C.
(each concentration is measured in duplicate)

EP4 = EP4 (Homo sapiens (Human), UniProt P35408); assay: hEP4 cAMP assay (BT549 breast cancer cells, HTRF cAMP); type: cell-based; details: antagonistic activity, PGE2 6 nM
Summary of the method: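 cAMP accumulation quantified by HTRF competition between cellular cAMP and d2-labeled cAMP for cryptate anti-cAMP antibody. Cells: endogenously EP4-expressing BT549, buffer with 2 mM IBMX; 45 min RT compound preincubation preceded 30 min RT challenge with PGE2 at 6 nM final.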

PTGER4 (EP4) = PTGER4 (EP4) (Homo sapiens (Human), UniProt P35408); assay: cell-based
EP2 = EP2 (Homo sapiens (Human), UniProt P43116); assay: hEP2 cAMP assay (SF295 glioblastoma cells, HTRF cAMP); type: cell-based; details: antagonistic activity
Summary of the method: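 PGE2-driven cAMP accumulation was measured by HTRF in SF295 cells, which express endogenous EP2 only. Cells in assay buffer with 2 mM IBMX were pre-incubated 45 min at RT, then incubated 30 min at RT. Detection used competition between cellular cAMP and d2-cAMP for a cryptate anti-cAMP antibody.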

Sequence of PTGER2 (EP2) (P43116 whole entry): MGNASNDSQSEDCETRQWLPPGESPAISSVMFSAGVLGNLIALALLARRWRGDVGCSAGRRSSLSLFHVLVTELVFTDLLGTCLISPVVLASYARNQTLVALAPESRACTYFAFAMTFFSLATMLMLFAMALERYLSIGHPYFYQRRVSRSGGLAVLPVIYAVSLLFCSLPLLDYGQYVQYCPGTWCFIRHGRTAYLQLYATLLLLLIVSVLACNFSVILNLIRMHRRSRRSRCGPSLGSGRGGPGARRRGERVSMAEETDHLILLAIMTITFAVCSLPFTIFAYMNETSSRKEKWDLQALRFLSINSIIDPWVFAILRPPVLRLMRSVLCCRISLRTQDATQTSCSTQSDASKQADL
Sequence of EP2 (P43116 whole entry): as above
Sequence of PTGER4 (EP4) (P35408 whole entry): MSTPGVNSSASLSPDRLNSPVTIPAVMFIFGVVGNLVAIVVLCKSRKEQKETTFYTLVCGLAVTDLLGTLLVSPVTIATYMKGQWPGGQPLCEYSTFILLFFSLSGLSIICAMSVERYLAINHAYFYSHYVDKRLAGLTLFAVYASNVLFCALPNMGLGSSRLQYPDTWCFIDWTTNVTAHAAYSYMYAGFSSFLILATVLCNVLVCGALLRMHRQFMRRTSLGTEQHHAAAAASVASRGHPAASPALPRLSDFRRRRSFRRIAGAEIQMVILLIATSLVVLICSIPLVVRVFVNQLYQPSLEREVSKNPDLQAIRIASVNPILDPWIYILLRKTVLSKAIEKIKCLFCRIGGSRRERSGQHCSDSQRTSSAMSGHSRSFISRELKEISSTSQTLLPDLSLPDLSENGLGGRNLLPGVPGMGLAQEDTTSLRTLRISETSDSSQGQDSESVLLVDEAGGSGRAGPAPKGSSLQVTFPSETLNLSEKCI
Sequence of EP4 (P35408 whole entry): as above

| Structure (SMILES) | IC50 (PTGER2 (EP2)) | IC50 (EP4) | IC50 (PTGER4 (EP4)) | IC50 (EP2) | IC50 (EP4; BT549 cells) |
| --- | --- | --- | --- | --- | --- |
| CCOc1cc(-c2cc(NCCc3ccc4ccccc4c3C)ncn2)sc1C(=O)NS(N)(=O)=O [Example 354, 3-Ethoxy-5-(6-((2-(1-methylnaphthalen-2-yl)ethyl)amino)pyrimidin-4-yl)-N-sulfamoylthiophene-2-carboxamide] | 41 nM | 56 nM | 32 nM | 27 nM | – |
| CCOc1cc(-c2cc(NCCc3cc(Cl)c4sccc4c3)ncn2)sc1C(=O)O [Example 359, 5-{6-[2-(7-Chloro-benzo[b]thiophen-5-yl)-ethylamino]-pyrimidin-4-yl}-3-ethoxy-thiophene-2-carboxylic acid] | 40 nM | 2 nM | 9 nM | 61 nM | – |
| CCCc1cc(-c2cc(NCCc3cc4ccsc4cc3OC)ncn2)ccc1CC(=O)O [Example 385, (4-{6-[2-(6-Methoxy-benzo[b]thiophen-5-yl)-ethylamino]-pyrimidin-4-yl}-2-propyl-phenyl)-acetic acid] | 30 nM | 134 nM | 71 nM | 180 nM | – |
| CCCc1cc(-c2cc(NCCc3ccc4sccc4c3F)ncn2)ccc1CC(=O)O [Example 386, (4-{6-[2-(4-Fluoro-benzo[b]thiophen-5-yl)-ethylamino]-pyrimidin-4-yl}-2-propyl-phenyl)-acetic acid] | 64 nM | 54 nM | 28 nM | 453 nM | – |
| CCCc1cc(-c2cc(NCCc3cc(F)c4sccc4c3)ncn2)ccc1CC(=O)O [Example 390, (4-{6-[2-(7-Fluoro-benzo[b]thiophen-5-yl)-ethylamino]-pyrimidin-4-yl}-2-propyl-phenyl)-acetic acid] | 264 nM | 32 nM | 29 nM | 590 nM | – |
| CCOc1cc(-c2cc(NCCc3c(OC)cc4c(c3C)OCCO4)ncn2)ccc1C(=O)O [Example 395, 2-Ethoxy-4-{6-[2-(7-methoxy-5-methyl-2,3-dihydro-benzo[1,4]dioxin-6-yl)-ethylamino]-pyrimidin-4-yl}-benzoic acid] | 4 nM | – | 98 nM | 5 nM | 128 nM |
| CCOc1cc(-c2cc(NCCc3c(OCC)cc4ccccc4c3C)ncn2)ccc1CC(=O)O [Example 420, (2-Ethoxy-4-{6-[2-(3-ethoxy-1-methyl-naphthalen-2-yl)-ethylamino]-pyrimidin-4-yl}-phenyl)-acetic acid] | 27 nM | – | 30 nM | 257 nM | 119 nM |
| CC(C)COc1cc(-c2cc(NCCc3cc(F)c4sccc4c3)ncn2)ccc1C(=O)O [Example 453, 4-{6-[2-(7-Fluoro-benzo[b]thiophen-5-yl)-ethylamino]-pyrimidin-4-yl}-2-isobutoxy-benzoic acid] | 102 nM | – | 70 nM | 281 nM | 118 nM |
| CCCCOc1cc(-c2cc(NCCc3cc(F)c4sccc4c3)ncn2)ccc1C(=O)O [Example 454, 2-Butoxy-4-{6-[2-(7-fluoro-benzo[b]thiophen-5-yl)-ethylamino]-pyrimidin-4-yl}-benzoic acid] | 88 nM | – | 212 nM | 608 nM | 225 nM |

More lines, in order of falling IC50 (PTGER2 (EP2)), values ahead:

| IC50 (PTGER2 (EP2)) | IC50 (EP4) | IC50 (PTGER4 (EP4)) | IC50 (EP2) | IC50 (EP4; BT549 cells) | Structure (SMILES) |
| --- | --- | --- | --- | --- | --- |
| 538 nM | 90 nM | 138 nM | 219 nM | – | CCOc1cc(-c2cc(NCCc3cc(Cl)c4sccc4c3)ncn2)ccc1C(=O)O [Example 358, 4-{6-[2-(7-Chloro-benzo[b]thiophen-5-yl)-ethylamino]-pyrimidin-4-yl}-2-ethoxy-benzoic acid] |
| 313 nM | – | 827 nM | 245 nM | 1400 nM | CCOc1cc(-c2cc(NCCc3ccc4scc(C)c4c3)ncn2)ccc1C(=O)O [Example 465, 2-Ethoxy-4-{6-[2-(3-methyl-benzo[b]thiophen-5-yl)-ethylamino]-pyrimidin-4-yl}-benzoic acid] |
| 271 nM | – | 18 nM | 250 nM | 38 nM | CCc1cc(-c2cc(NCCc3cc(F)c4sccc4c3)ncn2)sc1C(=O)O [Example 455, 3-Ethyl-5-{6-[2-(7-fluoro-benzo[b]thiophen-5-yl)-ethylamino]-pyrimidin-4-yl}-thiophene-2-carboxylic acid] |
| 237 nM | 109 nM | 9 nM | 115 nM | – | CCc1nc(-c2cc(NCCc3ccc4ccccc4c3C)ncn2)sc1-c1noc(=O)[nH]1 [Example 353, 3-(4-Ethyl-2-{6-[2-(1-methyl-naphthalen-2-yl)-ethylamino]-pyrimidin-4-yl}-thiazol-5-yl)-[1,2,4]oxadiazol-5(4H)-one] |
| 137 nM | 44 nM | 69 nM | 183 nM | – | CSc1cc(-c2cc(NCCc3cc(Cl)c4sccc4c3)ncn2)ccc1C(=O)O [Example 360, 4-{6-[2-(7-Chloro-benzo[b]thiophen-5-yl)-ethylamino]-pyrimidin-4-yl}-2-methylsulfanyl-benzoic acid] |
| 129 nM | – | 21 nM | 311 nM | 14 nM | CCOc1cc(-c2cc(NCCc3cc(F)c4sccc4c3)ncn2)sc1CC(=O)O [Example 456, (3-Ethoxy-5-{6-[2-(7-fluoro-benzo[b]thiophen-5-yl)-ethylamino]-pyrimidin-4-yl}-thiophen-2-yl)-acetic acid] |
| 103 nM | – | 21 nM | 371 nM | 18 nM | CCOc1cc(-c2cc(NCCc3cc(F)c4sccc4c3)ncn2)ccc1-c1nnn[nH]1 [Example 452, {6-[3-Ethoxy-4-(1H-tetrazol-5-yl)-phenyl]-pyrimidin-4-yl}-[2-(7-fluoro-benzo[b]thiophen-5-yl)-ethyl]-amine] |
| 71 nM | – | 21 nM | 660 nM | 16 nM | CCOc1cc(-c2cc(NCCc3cc(F)c4sccc4c3)ncn2)ccc1-c1noc(=O)[nH]1 [Example 451, 3-(2-Ethoxy-4-{6-[2-(7-fluoro-benzo[b]thiophen-5-yl)-ethylamino]-pyrimidin-4-yl}-phenyl)-[1,2,4]oxadiazol-5(4H)-one] |
| 55 nM | 95 nM | 29 nM | 46 nM | – | CCOc1cc(-c2cc(NCCc3ccc4ccccc4c3C)ncn2)sc1C(=O)NS(C)(=O)=O [Example 355, N-(3-Ethoxy-5-{6-[2-(1-methyl-naphthalen-2-yl)-ethylamino]-pyrimidin-4-yl}-thiophene-2-carbonyl)-methanesulfonamide] |
| 16 nM | – | 31 nM | 110 nM | 57 nM | CCOc1cc(-c2cc(NCCc3c(OCC)cc4ccccc4c3F)ncn2)ccc1C(=O)O [Example 436, 2-Ethoxy-4-{6-[2-(3-ethoxy-1-fluoro-naphthalen-2-yl)-ethylamino]-pyrimidin-4-yl}-benzoic acid] |
| 10 nM | – | 54 nM | 45 nM | 148 nM | CCOc1cc(-c2cc(NCCc3c(OCC)cc4ccccc4c3C)ncn2)ccc1C(=O)O [Example 418, 2-Ethoxy-4-{6-[2-(3-ethoxy-1-methyl-naphthalen-2-yl)-ethylamino]-pyrimidin-4-yl}-benzoic acid] |
| 3 nM | – | 30 nM | 29 nM | 85 nM | CCOc1cc2ccccc2c(C)c1CCNc1cc(-c2ccc(C(=O)O)c(SC)c2)ncn1 [Example 419, 4-{6-[2-(3-Ethoxy-1-methyl-naphthalen-2-yl)-ethylamino]-pyrimidin-4-yl}-2-methylsulfanyl-benzoic acid] |
